In US10203334B2, “Methods and compositions related to nucleic acid binding assays” (Nubad, LLC, priority 2012, dated 2019):
Where two headings read alike, the source gives them in different places.

Assays:
[1] = system: E. coli ribosomal A-site oligonucleotide (SEQ ID No. 1); experiment: 96-well F-neo displacement HTS on ribosomal A-site; type: binding; conditions: 96-well plate reader; 0.30 mM F-neo and 0.3 mM A-site oligonucleotide
Excerpt: [drawing 24] where FHNeo represents the protonated form of F-neo. F(-)Neo, upon binding to nucleic acids such as DNA or RNA, is destabilized by the nucleic acid backbone negative potential, shifting the equilibrium towards FH, making F-neo a weaker acid, raising the pKa, which is what we observe upon binding to the A-site. For the A-site targeted assay, we calculated the Z' factor (Z=1-3(2.7+2.8)/(414-267)=0.89. […] Provided is a detailed example for the development of a HTS by the displacement of a fluorescene-neomycin (F-neo (42a)) from rRNA A-site oligonucleotide (SEQ ID No. 1) using a 96 well plate format and a fluorescent plate reader. […] This HTS involves the displacement of a fluorescene-neomycin (F-neo (42a)) by potential RNA binding molecules in a 96 well plate format using a fluorescent plate reader. […] F-neo based RNA binding assays have been performed using a fluorescence spectrophotometer with a 96-well plate reader and results recorded in FIG. 4. […] Fo is defined as the baseline fluorescence intensity of the RNA/F-neo complex and F is the intensity with added drug. The difference between the fluorescence intensity baseline of F-neo/A-site complex and complex with added drug (F-Fo) indicates the extent of the competition of drug for the binding site, this allows the relative binding affinities of aminoglycosides to be established. […]

[2] = system: d(CCCCGGGG)2; experiment: ITC derived binding constant; conditions: 50 mM KCl, 10 mM SC, 0.5 mM EDTA (pH 6.0) at 25° C.
Excerpt: (§1) Determination of the pKa was done using chemometric analysis of the absorption profiles at various pH values of the covalently attached fluorescein moiety (Kubista, M., et al., (1993) Anal. Chem. 65, 994-998, Kubista, M., et al., (1995) Anal. Chim. Acta. 302, 121-125.2, 3). The pH dependent absorption profile of free fluorescein-neomycin was first analyzed to determine its pKa. […] The electrostatic potential (P) calculated from the shift in pKa, and the ITC derived binding constant (K). Electrostatic potential experiments performed in 100 mM NaCl, 10 mM SC, 0.5 mM EDTA at 25° C. ITC experiments performed in 50 mM KCl, 10 mM SC, 0.5 mM EDTA (pH 6.0) at 25° C. […] Fluorescein-neomycin concentration was 10 μM. Table 1 represents the pKa values determined from the inflection point of the pH dependent absorbance scans of free fluorescein-neomycin, fluorescein-neomycin with one molar equivalent d(CCCCGGGG)2 and d(GGGGCCCC)2. The electrostatic potential (Y) calculated from the shift in pKa, and the ITC derived binding constant (K).

[3] = system: d(GGGGCCCC)2; experiment: ITC derived binding constant; conditions: 50 mM KCl, 10 mM SC, 0.5 mM EDTA (pH 6.0) at 25° C.
Excerpt: as §1

[4] = pKa of free probe from pH-dependent absorbance spectra; type: physicochemical
Description: The mechanism for change in fluorescence of F-Neo upon binding to A-site rRNA oligonucleotide (SEQ ID No. 1) using UV absorption spectroscopy was investigated. Effect of pH on the absorbance spectra of 3.0 mM fluorescein-neomycin in 20 mM MOPSO, 0.4 mM EDTA, 50 mM NaCl at the indicated pH values were studied.
With increasing pH, fluorescein-neomycin undergoes a transition between mono-anion and di-anion species. Fluorescein-neomycin concentration was 10 μM in 100 mM NaCl, 10 mM SC, 0.5 mM EDTA. As indicated by its absorbance spectra in FIG. 8A, the F-neo transitions from a mono-anion to a di-anion with increasing pH. FIG. 8B compares the absorbance spectra between the mono-anion and di-anion species of fluorescein neomycin. […] The absorbance peak of about 490 nm in FIGS. 8A and 8B is consistent with the phenolate species of fluorescein. The pKa for the equilibrium of the phenol and phenolate forms of F-neo (42a) was measured by evaluating the absorbance spectrum as a function of pH and shown to be 6.84. […] When monitoring the absorption spectrum in the presence of the A-site RNA (SEQ ID No. 1), a reduction in A490 consistent with the change in pKa was observed. […] This shift in pKa causes a change in the fluorescence intensity of F-neo (42a). […]

For NCC1O[C@H](OC2C(O)C(OC3C(O)[C@H](N)CC(N)[C@H]3O[C@H]3OC(CN)[C@@H](O)C(O)C3N)O[C@@H]2CSCCNC(=O)CCSCC(=O)Nc2ccc(-c3c4ccc(=O)cc-4oc4cc(O)ccc34)c(C(=O)O)c2)C(N)C(O)[C@@H]1O (some centres unmarked) [F-neo (42a), Neomycin-Fluorescein Conjugate], which “reduction in fluorescence intensity on addition of A-site” value [1] is on record?
Its value is 2 fold.

And the “K (M^−1) × 10^5” value [2]?
Its value is 7.97 ± 10.9 (M^−1) × 10^5.

What about the “K (M^−1) × 10^5” value [3] of the same compound?
The value was 66.3 ± 9.7 (M^−1) × 10^5.

What about the pKa ([4]; buffer: 100 mM NaCl, free, 10 μM, 100 mM NaCl, 10 mM SC, 0.5 mM EDTA at 25° C., read-out: pKa) of the same compound?
Its pKa is 6.57.

And the pKa ([4]; free probe, absorbance spectrum as a function of pH, read-out: pKa for the equilibrium of the phenol and phenolate forms)?
Its pKa is 6.84.
